Data as given in US4430324A (priority 1982, dated 1984).
Like-named read-outs stand apart in the source and are kept apart here.

Columns and labels:
S. mutans 6715 = settings: for IC50: read-out: ID/50; for ID/50 (recalculated as ppm F): 1440 min
S. mutans OMZ-176 = settings: for IC50: read-out: ID/50; for ID/50 (recalculated as ppm F): 1440 min
S. salivarius SS4 = settings: for IC50: read-out: ID/50; for ID/50 (recalculated as ppm F): 1440 min
S. salivarius H-257 = settings: for IC50: read-out: ID/50; for ID/50 (recalculated as ppm F): 1440 min
S. sanguis 10556 = settings: for IC50: read-out: ID/50; for ID/50 (recalculated as ppm F): 1440 min
S. sanguis 10557 = settings: for IC50: read-out: ID/50; for ID/50 (recalculated as ppm F): 1440 min
L. casei = settings: for IC50: read-out: ID/50; for ID/50 (recalculated as ppm F): 1440 min
cariogenic bacteria = assay: inhibition of bacterial growth, overall findings; settings: all bacterial isolates tested
artificial plaque = assay: in vitro antiplaque study; type: cell-based, clinical plaque samples; settings: for Percentage Inhibition of Growth of Artificial Plaque: means ±95% confidence limits
Protocol: The in vitro plaque was initiated on uniformly sized aluminum plummets which were previously coated for 20 min. with wax stimulated whole saliva. These coated plummets were then placed in a Trypticase (B.B.L.) 1% sucrose growth medium inoculated with clinical plaque samples. After 5 hours of incubation at 37° C. the plummets were immersed in a solution containing equal volumes of whole saliva and the test compound for one minute and subsequently suspended overnight (37° C.) in a 20% solution of saliva supernatant. On the second day the plummets were retreated with the test solution (1 min.) and reincubated in inoculated Trypticase-sucrose growth medium for 5 hours. After this period of time the plaques were rinsed in distilled water for 5 minutes. The plaques were then removed from the plummets by sonication in 10 ml distilled water and quantitated in a Unicam SP500 spectrophotometer at 570 nm.
Five replicas per test compound were examined.

pH of solution = type: physicochemical

| Compound | IC50 (S. mutans 6715) [µM] | IC50 (S. mutans OMZ-176) [µM] | IC50 (S. salivarius SS4) [µM] | IC50 (S. salivarius H-257) [µM] | IC50 (S. sanguis 10556) [µM] | IC50 (S. sanguis 10557) [µM] | IC50 (L. casei) [µM] | inhibition of bacterial growth (cariogenic bacteria) | further results |
| --- | --- | --- | --- | --- | --- | --- | --- | --- | --- |
| Al2 (SO4)3 | 3560 | 5910 | 7800 | 5400 | 5550 | 8450 | 6450 |  |  |
| [Cl-].[Cl-].[Co+2] [CoCl2] | 7720 | 10600 | 5960 | 550 | 2890 | 3840 | > 12000 |  |  |
| [Cl][Sn][Cl] [SnCl2] | 2260 | 3680 | 1450 | 3640 | 1270 | 1880 | 3000 to 6000 |  |  |
| SnF2 | 1500 | 2280 | 2450 | 740 | 440 | 840 | 2970 |  | % Reduction in Dissolution (pH 4): 57%; % Reduction in Dissolution (pH 5): 54%; % Reduction in Dissolution (pH 6): 45%; % Reduction in Dissolution (pH 7): 43%; ID/50 (recalculated as ppm F) (S. mutans 6715): 56; ID/50 (recalculated as ppm F) (S. mutans OMZ-176): 87; ID/50 (recalculated as ppm F) (S. salivarius SS4): 93; ID/50 (recalculated as ppm F) (S. salivarius H-257): 29; ID/50 (recalculated as ppm F) (S. sanguis 10556): 17; ID/50 (recalculated as ppm F) (S. sanguis 10557): 32; ID/50 (recalculated as ppm F) (L. casei): 113 |
| [Mg] [Mg] |  |  |  |  |  |  |  | little or no effect |  |
| [Fe] [Fe] |  |  |  |  |  |  |  | little or no effect |  |
| O=S(=O)([O-])[O-].[Zn+2] [ZnSO4] | 5740 | 7500 | 6000 | 750 | 360 | 400 | 10400 |  | antiplaque activity (artificial plaque; 6.0-30.0 mM/L zinc): no difference in activity between ZnSO4 and ZnNH4 F3; Percentage Inhibition of Growth of Artificial Plaque (artificial plaque; zinc conc. 6.0 mM/L): 47 ± 14%; Percentage Inhibition of Growth of Artificial Plaque (artificial plaque; zinc conc. 15.0 mM/L): 51 ± 14%; Percentage Inhibition of Growth of Artificial Plaque (artificial plaque; zinc conc. 30.0 mM/L): 64 ± 14% |
| [Mn] [Mn] |  |  |  |  |  |  |  | little or no effect |  |
| N.N.[F-].[F-].[F-].[F-].[F-].[F-].[Sn] [Sn(NH4)2 F6, stannic ammonium fluoride] |  |  |  |  |  |  |  | less active than the stannous form SnF2 | pH values in solution (pH of solution): ~3.8; ID/50 (recalculated as ppm F) (S. mutans 6715; Table III, S. mutans 6715): 137 ppm F; IC50 (S. mutans 6715; Table II, fluoride salts, S. mutans 6715, means of triplicate experiments): 1200 µM; ID/50 (recalculated as ppm F) (S. mutans OMZ-176; Table III, S. mutans OMZ-176): 163 ppm F; IC50 (S. mutans OMZ-176; Table II, fluoride salts, S. mutans OMZ-176, means of triplicate experiments): 1430 µM; ID/50 (recalculated as ppm F) (S. salivarius SS4; Table III, S. salivarius SS4): 188 ppm F; IC50 (S. salivarius SS4; Table II, fluoride salts, S. salivarius SS4, means of triplicate experiments): 1650 µM; ID/50 (recalculated as ppm F) (S. salivarius H-257; Table III, S. salivarius H-257): 46 ppm F; IC50 (S. salivarius H-257; Table II, fluoride salts, S. salivarius H-257, means of triplicate experiments): 400 µM; ID/50 (recalculated as ppm F) (S. sanguis 10556; Table III, S. sanguis 10556): 25 ppm F; IC50 (S. sanguis 10556; Table II, fluoride salts, S. sanguis 10556, means of triplicate experiments): 220 µM; ID/50 (recalculated as ppm F) (S. sanguis 10557; Table III, S. sanguis 10557): 45 ppm F; IC50 (S. sanguis 10557; Table II, fluoride salts, S. sanguis 10557, means of triplicate experiments): 390 µM; ID/50 (recalculated as ppm F) (L. casei; Table III, L. casei): 288 ppm F; IC50 (L. casei; Table II, fluoride salts, L. casei, means of triplicate experiments): 2530 µM |
| [Ca] [Ca] |  |  |  |  |  |  |  | little or no effect |  |
| [Cl-].[Na+] [Na] |  |  |  |  |  |  |  | little or no effect |  |
